Target: β-adrenergic receptor (β-AR; subtype not determined)

CC(C)(C)NC[C@H](O)COc1cccc2[nH]c(C#N)c(I)c12 [125I-CYP, (-)3-[125I]iodocyanopindolol]
Kd: 0.0324 ± 0.0011 nM

From paper PMC1198236, “β-adrenergic receptor activation in immortalized human urothelial cells stimulates inflammatory responses by PKA-independent mechanisms” (Cell communication and signaling : CCS, 2005)
